In assay [1] the target is Tyrosine-protein kinase JAK2 (Homo sapiens, UniProt O60674). The assay can be described thus: Selectivity interaction (ProQinase) EUB0000171b JAK2.
Another assay deals with Activated CDC42 kinase 1 (Homo sapiens, UniProt Q07912). To be noted: at 10 µM.
Assay [2] deals with Insulin-like growth factor 1 receptor (Homo sapiens, UniProt P08069). Briefly: Selectivity interaction (KinomeScan (DiscoverX)) EUB0000092b IGF1R. To be noted: at 10 µM.
The target of assay [3] is MAP kinase-interacting serine/threonine-protein kinase 1 (Homo sapiens) (UniProt Q9BUB5). Briefly: Selectivity interaction (KinomeScan (DiscoverX)) EUB0000092b MKNK1. To be noted: at 10 µM.
Assay [4] relates to Phosphatidylinositol 4,5-bisphosphate 3-kinase catalytic subunit alpha isoform (Homo sapiens), P42336 [C420R]. The assay can be described thus: (§1) Selectivity interaction (KinomeScan (DiscoverX)) EUB0001049a PIK3CA. As to conditions: at 1 µM.
Sequence of Phosphatidylinositol 4,5-bisphosphate 3-kinase catalytic subunit alpha isoform (Homo sapiens), P42336 [C420R] (P42336 whole entry C420R, canonical isoform): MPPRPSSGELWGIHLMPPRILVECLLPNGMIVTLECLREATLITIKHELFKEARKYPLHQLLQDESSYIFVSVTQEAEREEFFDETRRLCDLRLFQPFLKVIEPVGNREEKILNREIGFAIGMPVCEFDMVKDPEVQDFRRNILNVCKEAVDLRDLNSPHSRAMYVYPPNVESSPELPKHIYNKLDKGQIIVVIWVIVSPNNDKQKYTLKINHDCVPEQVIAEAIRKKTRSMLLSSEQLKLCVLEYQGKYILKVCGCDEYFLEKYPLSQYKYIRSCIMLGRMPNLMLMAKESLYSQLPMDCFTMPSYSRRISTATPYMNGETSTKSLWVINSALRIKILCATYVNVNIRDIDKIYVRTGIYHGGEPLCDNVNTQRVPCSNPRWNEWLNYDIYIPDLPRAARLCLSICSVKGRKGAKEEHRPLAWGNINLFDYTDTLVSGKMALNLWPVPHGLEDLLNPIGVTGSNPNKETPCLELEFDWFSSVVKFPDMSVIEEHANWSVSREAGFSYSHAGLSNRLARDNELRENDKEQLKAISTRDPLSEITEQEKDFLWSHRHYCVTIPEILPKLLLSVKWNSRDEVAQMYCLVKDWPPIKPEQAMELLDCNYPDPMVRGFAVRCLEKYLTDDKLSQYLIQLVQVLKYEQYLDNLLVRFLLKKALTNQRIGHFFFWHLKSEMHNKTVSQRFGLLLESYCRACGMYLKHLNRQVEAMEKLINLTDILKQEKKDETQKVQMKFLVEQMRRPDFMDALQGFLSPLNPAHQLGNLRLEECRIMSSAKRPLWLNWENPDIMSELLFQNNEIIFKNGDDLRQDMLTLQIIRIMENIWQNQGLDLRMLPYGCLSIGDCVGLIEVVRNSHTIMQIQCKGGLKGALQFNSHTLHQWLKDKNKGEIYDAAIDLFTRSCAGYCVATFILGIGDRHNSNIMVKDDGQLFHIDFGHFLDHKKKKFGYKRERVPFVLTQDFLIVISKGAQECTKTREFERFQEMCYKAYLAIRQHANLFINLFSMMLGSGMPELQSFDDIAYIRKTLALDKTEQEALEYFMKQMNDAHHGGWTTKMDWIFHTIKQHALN
The subject of assay [5] is Phosphatidylinositol 4,5-bisphosphate 3-kinase catalytic subunit alpha isoform (Homo sapiens), P42336 [M1043I]. The assay is described as §1. To be noted: at 1 µM.
The subject of assay [6] is Phosphatidylinositol 4,5-bisphosphate 3-kinase catalytic subunit alpha isoform (Homo sapiens), P42336 [E542K]. Described as §1. To be noted: at 1 µM.
Assay [7] deals with Phosphatidylinositol 4,5-bisphosphate 3-kinase catalytic subunit alpha isoform (Homo sapiens), P42336 [E545K]. Described as §1. As to conditions: at 1 µM.
Assay [8] deals with Phosphatidylinositol 4,5-bisphosphate 3-kinase catalytic subunit alpha isoform (Homo sapiens) (UniProt P42336). The description is as §1. As to conditions: at 1 µM.
Assay [9] concerns Phosphatidylinositol 4,5-bisphosphate 3-kinase catalytic subunit alpha isoform (Homo sapiens), P42336 [H1047Y]. The assay is described as §1. To be noted: at 1 µM.
Assay [10] relates to Phosphatidylinositol 4,5-bisphosphate 3-kinase catalytic subunit alpha isoform (Homo sapiens), P42336 [Q546K]. Described as §1. As to conditions: at 1 µM.
Assay [11] relates to Phosphatidylinositol 4,5-bisphosphate 3-kinase catalytic subunit alpha isoform (Homo sapiens), P42336 [H1047L]. Described as §1. To be noted: at 1 µM.
Assay [12] relates to Phosphatidylinositol 4,5-bisphosphate 3-kinase catalytic subunit alpha isoform (Homo sapiens), P42336 [I800L]. The assay is described as §1. To be noted: at 1 µM.
Assay [13] relates to Phosphatidylinositol 4,5-bisphosphate 3-kinase catalytic subunit alpha isoform (Homo sapiens), P42336 [E545A]. The assay is described as §1. As to conditions: at 1 µM.
Assay [14] deals with Calcium/calmodulin-dependent protein kinase type II subunit beta (Homo sapiens) (UniProt Q13554). Briefly: Selectivity interaction (KinomeScan (DiscoverX)) EUB0000655a CAMK2B. To be noted: at 10 µM.
Sequence of Calcium/calmodulin-dependent protein kinase type II subunit beta (Homo sapiens) (Q13554 whole entry, the tested form may be a part): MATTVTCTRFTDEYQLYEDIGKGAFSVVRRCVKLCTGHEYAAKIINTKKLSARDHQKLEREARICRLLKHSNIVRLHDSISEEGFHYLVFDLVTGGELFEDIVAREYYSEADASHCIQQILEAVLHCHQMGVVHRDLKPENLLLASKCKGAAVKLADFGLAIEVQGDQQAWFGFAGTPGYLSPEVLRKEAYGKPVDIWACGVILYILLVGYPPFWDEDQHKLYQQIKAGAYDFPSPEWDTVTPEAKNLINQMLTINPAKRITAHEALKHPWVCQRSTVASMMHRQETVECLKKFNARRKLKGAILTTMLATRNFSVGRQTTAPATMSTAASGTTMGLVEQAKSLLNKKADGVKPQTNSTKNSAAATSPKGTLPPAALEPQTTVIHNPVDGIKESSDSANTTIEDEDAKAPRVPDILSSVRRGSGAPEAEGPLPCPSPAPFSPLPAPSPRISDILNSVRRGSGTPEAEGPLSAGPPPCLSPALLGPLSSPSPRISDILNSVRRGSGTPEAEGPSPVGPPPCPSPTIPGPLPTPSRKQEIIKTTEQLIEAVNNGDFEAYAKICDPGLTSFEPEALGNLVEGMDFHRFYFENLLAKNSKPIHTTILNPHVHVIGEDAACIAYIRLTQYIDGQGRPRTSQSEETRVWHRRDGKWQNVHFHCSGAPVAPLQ
For assay [15], the target named is Bromodomain adjacent to zinc finger domain protein 2A (Homo sapiens, UniProt Q9UIF9). The assay can be described thus: Selectivity interaction (Bromodomain panel (DSF asssay)) EUB0000270b BAZ2A.
For assay [16], the target named is T1, Muscle, skeletal receptor tyrosine-protein kinase (Homo sapiens) (UniProt O15146).
T1 sequence (whole entry): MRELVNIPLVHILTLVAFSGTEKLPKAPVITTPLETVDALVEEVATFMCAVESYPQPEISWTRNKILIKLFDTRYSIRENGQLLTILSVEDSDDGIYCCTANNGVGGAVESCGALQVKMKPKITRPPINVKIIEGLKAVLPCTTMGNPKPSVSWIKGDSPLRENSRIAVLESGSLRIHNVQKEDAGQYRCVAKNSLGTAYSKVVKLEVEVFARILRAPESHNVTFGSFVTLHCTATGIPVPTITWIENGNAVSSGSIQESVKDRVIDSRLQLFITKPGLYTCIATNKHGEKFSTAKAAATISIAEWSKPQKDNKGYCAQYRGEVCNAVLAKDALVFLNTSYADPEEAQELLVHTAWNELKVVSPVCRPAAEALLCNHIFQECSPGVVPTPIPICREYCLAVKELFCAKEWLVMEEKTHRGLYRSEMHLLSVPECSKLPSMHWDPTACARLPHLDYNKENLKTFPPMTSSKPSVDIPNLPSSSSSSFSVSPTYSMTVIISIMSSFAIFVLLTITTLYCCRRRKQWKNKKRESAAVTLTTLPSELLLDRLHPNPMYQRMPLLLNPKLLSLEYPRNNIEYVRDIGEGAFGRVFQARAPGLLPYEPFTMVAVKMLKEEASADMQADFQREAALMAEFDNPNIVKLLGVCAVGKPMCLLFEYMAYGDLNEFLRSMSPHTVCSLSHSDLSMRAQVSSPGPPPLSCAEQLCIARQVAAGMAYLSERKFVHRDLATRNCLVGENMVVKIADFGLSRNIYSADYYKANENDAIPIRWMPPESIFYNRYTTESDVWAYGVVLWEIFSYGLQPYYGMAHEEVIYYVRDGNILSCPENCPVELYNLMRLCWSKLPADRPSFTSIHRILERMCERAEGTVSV
The assay can be described thus: Selectivity interaction (KinomeScan (DiscoverX)) EUB0000666a MUSK. As to conditions: at 10 µM.

The target in assay [17] is Protein arginine N-methyltransferase 5 (Homo sapiens, UniProt O14744). The assay can be described thus: Selectivity interaction (Scintillation proximity assays) EUB0000230b PRMT5. (In general: In a scintillation proximity assay essentially only radioactivity close to the scintillant gives light.)
Assay [18] addresses G protein-coupled receptor kinase 4 (Homo sapiens) (UniProt P32298). The assay can be described thus: Selectivity interaction (KinomeScan (DiscoverX)) EUB0000607a GRK4. As to conditions: at 10 µM.
Assay [19] deals with Tyrosine-protein kinase Fyn (Homo sapiens) (UniProt P06241). The assay can be described thus: Selectivity interaction (SelectScreen profiling (Invitrogen)) EUB0000607a FYN. To be noted: at 2 µM.
Sequence of Tyrosine-protein kinase Fyn (Homo sapiens) (P06241 2-537 limits assumed): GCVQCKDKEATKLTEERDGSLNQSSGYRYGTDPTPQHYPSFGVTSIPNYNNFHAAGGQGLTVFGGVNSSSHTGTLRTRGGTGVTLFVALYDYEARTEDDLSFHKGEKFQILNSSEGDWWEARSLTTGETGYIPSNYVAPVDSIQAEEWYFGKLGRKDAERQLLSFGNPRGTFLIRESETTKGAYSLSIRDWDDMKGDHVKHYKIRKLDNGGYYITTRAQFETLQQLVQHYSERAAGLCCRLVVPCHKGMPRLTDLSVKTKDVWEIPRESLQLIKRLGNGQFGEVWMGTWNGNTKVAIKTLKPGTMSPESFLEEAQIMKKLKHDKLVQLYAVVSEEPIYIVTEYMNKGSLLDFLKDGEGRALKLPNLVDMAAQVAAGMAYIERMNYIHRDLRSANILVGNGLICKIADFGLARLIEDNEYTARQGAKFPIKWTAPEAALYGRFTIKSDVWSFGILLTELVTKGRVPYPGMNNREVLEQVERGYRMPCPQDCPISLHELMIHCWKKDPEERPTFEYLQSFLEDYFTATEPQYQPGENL
In assay [20] the target is Calcium/calmodulin-dependent protein kinase type II subunit beta (Homo sapiens) (UniProt Q13554). Briefly: Selectivity interaction (KinomeScan (DiscoverX)) EUB0000607a CAMK2B. To be noted: at 10 µM.
The target of assay [21] is Serine/threonine-protein kinase tousled-like 2 (Homo sapiens) (UniProt Q86UE8). The assay can be described thus: Selectivity interaction (ActivX KiNativ screen (kinase selectivity in THP-1 cell lysates)) EUB0000639a TLK2. It is filed as subcellular. To be noted: lysate, at 0.2 µM.
Assay [22] addresses Serine/threonine-protein kinase pim-1 (Homo sapiens, UniProt P11309). Briefly: Selectivity interaction (KinomeScan (DiscoverX)) EUB0000229b PIM1. To be noted: at 10 µM.
The target of assay [23] is Serine/threonine-protein kinase RIO2 (Homo sapiens) (UniProt Q9BVS4). Briefly: Selectivity interaction (KinomeScan (DiscoverX)) EUB0001619a RIOK2. To be noted: at 1 µM.
Sequence of Serine/threonine-protein kinase RIO2 (Homo sapiens) (Q9BVS4 whole entry, looked up): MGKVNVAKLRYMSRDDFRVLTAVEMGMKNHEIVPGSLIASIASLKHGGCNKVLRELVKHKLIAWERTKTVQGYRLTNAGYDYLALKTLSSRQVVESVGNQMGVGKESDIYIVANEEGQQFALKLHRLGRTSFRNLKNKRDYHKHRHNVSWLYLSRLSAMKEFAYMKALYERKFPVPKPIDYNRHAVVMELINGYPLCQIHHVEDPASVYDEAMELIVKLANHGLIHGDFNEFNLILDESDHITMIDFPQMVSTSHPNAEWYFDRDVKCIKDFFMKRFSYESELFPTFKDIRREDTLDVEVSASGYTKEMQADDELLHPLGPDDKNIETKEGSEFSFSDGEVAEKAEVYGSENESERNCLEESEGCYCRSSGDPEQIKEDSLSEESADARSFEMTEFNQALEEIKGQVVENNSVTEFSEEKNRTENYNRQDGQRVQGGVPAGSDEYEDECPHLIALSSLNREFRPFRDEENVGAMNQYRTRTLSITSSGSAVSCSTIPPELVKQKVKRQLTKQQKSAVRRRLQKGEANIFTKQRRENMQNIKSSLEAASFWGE
Assay [24] has as its target Fibroblast growth factor receptor 2 (Homo sapiens) (UniProt P21802). The assay can be described thus: Selectivity interaction (KinomeScan (DiscoverX)) EUB0000618a FGFR2. As to conditions: at 10 µM.

Each structure is given as a SMILES string.

Sequence of Tyrosine-protein kinase JAK2 (O60674 whole entry): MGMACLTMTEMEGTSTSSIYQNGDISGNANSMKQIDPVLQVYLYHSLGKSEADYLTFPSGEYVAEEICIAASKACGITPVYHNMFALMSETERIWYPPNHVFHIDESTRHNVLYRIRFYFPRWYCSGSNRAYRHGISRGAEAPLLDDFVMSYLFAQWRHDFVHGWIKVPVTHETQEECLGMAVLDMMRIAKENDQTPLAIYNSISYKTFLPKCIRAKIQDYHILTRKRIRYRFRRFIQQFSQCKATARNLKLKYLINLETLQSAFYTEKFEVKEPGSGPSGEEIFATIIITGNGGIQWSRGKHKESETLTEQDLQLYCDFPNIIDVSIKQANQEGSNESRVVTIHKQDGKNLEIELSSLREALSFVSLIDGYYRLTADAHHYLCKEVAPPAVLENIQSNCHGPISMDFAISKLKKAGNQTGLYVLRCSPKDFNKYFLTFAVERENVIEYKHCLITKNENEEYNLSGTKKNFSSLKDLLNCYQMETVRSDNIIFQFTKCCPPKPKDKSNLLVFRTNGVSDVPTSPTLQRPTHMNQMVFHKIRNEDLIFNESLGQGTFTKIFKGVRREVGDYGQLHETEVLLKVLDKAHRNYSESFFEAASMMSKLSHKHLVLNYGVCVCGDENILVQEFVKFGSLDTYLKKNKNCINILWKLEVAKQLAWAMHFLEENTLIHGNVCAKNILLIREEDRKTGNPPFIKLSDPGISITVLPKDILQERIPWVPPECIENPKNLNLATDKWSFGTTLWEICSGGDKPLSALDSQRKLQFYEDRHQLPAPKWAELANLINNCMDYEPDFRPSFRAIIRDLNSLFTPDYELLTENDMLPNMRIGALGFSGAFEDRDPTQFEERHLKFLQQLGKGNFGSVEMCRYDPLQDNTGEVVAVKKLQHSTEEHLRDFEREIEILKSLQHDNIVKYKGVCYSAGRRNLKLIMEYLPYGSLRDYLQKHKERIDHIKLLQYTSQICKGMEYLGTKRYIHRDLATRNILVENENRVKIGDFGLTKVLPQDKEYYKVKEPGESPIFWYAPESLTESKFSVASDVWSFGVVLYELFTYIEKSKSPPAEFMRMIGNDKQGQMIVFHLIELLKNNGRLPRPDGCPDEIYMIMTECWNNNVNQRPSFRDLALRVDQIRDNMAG
Sequence of Fibroblast growth factor receptor 2 (Homo sapiens) (P21802 22-821 limits assumed): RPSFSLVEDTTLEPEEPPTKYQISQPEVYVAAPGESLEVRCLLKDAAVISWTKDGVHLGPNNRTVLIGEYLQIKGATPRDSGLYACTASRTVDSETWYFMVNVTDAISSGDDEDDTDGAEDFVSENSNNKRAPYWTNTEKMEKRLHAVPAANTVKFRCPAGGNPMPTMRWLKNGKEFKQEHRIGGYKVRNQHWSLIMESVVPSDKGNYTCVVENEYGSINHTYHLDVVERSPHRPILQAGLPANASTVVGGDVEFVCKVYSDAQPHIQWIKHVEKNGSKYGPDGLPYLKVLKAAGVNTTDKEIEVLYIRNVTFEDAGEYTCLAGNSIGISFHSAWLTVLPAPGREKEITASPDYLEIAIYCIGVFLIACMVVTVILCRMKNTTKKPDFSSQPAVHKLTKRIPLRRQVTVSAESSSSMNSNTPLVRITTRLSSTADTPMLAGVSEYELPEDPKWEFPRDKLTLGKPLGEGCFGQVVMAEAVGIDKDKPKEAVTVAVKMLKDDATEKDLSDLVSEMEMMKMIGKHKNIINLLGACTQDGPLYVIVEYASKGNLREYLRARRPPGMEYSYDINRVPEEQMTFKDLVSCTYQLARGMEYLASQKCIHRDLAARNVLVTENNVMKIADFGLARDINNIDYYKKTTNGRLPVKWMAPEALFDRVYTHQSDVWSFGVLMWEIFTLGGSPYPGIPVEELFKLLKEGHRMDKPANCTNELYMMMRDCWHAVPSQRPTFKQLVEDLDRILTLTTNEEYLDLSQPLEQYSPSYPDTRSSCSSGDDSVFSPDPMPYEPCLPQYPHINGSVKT
Sequence of Serine/threonine-protein kinase pim-1 (P11309 whole entry, looked up): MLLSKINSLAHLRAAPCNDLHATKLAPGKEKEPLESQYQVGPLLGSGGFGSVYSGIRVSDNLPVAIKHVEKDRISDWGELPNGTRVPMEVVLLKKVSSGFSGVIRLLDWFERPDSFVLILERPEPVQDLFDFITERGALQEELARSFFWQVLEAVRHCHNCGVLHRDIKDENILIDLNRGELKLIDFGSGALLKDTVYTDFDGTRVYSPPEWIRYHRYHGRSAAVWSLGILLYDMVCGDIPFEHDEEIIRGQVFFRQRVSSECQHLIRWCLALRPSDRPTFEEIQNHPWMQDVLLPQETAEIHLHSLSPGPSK

As to `C=CC(=O)Nc1cccc(C(=O)Nc2ccc(Nc3cc(-c4[nH]c(SC)nc4C)ccn3)cc2)c1`, the % of control in assay [1] (at 1 µM) is 80%; in assay [1] (at 5 µM) it was 72%.
With `CCN(CC)CCCCNc1ncc2cc(-c3cc(OC)cc(OC)c3)c(NC(=O)NC(C)(C)C)nc2n1`, at Activated CDC42 kinase 1, the % of control was 100%.
In the case of `CCC(=O)N1CCN(c2ccc(-n3c(=O)ccc4cnc5ccc(-c6cnc7ccccc7c6)cc5c43)cc2C(F)(F)F)CC1`, the % of control in [2] is 94%; in assay [3], 44%.
For `COc1cc(Nc2nc(C)cc(-c3cnn4nc(OC)ccc34)n2)cc(C(F)(F)F)c1`, the % of control was 76% in assay [4]; 100% in assay [5]; 59% in [6]; 71% in assay [7]; 100% in assay [8]; 85% in assay [9]. Besides, the % of control stood at 66% in assay [10], 100% in assay [11], 46% in assay [12] and 77% in [13].
Consider `CN(C)CCOc1ccc(-c2nc(-c3ccncc3)c(-c3ccc4c(c3)CC/C4=N\O)[nH]2)cc1`, for which the % of control in assay [14] was determined as 98%.
For the compound `Cc1cc(CN)cc(C)c1-c1ncn(C)c1-c1cncn1C`, the dTM in assay [15] is -1.5 K.
In assay [16], `O=C(NOC[C@H](O)CO)c1ccc(F)c(F)c1Nc1ccc(I)cc1F` showed a % of control of 68%.
In general, IC50 refers to the concentration that inhibits the measured activity by half. The low end stands for greater potency in that assay, the high end for weaker potency in that assay. In turn, `CNCCN1CCC(c2cc(CN(C)C(=O)c3cccc(Oc4ccccc4)c3)ccn2)CC1` showed an IC50 in assay [17] above 10 µM.
With `CNC(=O)Nc1ccc(-c2nc(N3CC4CCC(C3)O4)c3cnn(C4CCC5(CC4)OCCO5)c3n2)cc1`, the % of control in [18] and in assay [20] was 100% each time. This compound also returned a % of inhibition in [19] of 2%.
In [21], `CC[C@@H]1[C@H](F)C(=O)N[C@@H]1COc1nccc2cc(C(N)=O)c(OC)cc12` [ZIMLOVISERTIB] returned a % of inhibition of 16.8%.
For the compound `COc1cc(N(C)c2ccnc3ccc(C(F)(F)F)cc23)cc(OC)c1OC`, the % binding in assay [22] is 69%.
In [23], `N#Cc1cccc(-c2c[nH]c3ncnc(N4CCOCC4)c23)c1` returned a % of control of 75%.
In turn, `O[C@H]1CC[C@H](Nc2ncc3nc(Nc4c(F)cc(F)cc4F)n([C@H]4CCOC4)c3n2)CC1` came in with a % of control in assay [24] of 83%.

(Values after ChEMBL document CHEMBL5465560, “Selectivity Literature for EUbOPEN Chemogenomic Library” (2024).)
